Measurements published in patent US6395787B1, “Ocular hypotensive lipids” (Allergan Sales, Inc., priority 2000, dated 2002).

Columns and labels:
[1] = target: T1, recombinant feline FP receptor (Felis catus, UniProt A0ABI7XJ69); experiment: Radioligand binding competition vs 3H-17-phenyl PGF2α, recombinant feline FP receptor; design: species or system cat
Procedure: Plasma membrane preparations of HEK 293 cells stably transfected with the human or feline FP receptor were obtained as follows. Cells washed with TME buffer were scraped from the bottom of the flasks and homogenized for 30 sec using a Brinkman PT 10/35 polytron. TME buffer was added as necessary to achieve a 40 ml volume in the centrifuge tubes. […] The cell homogenate was centrifuged at 19,000 rpm for 20 min at 4-6° C. using a Beckman Ti-60 rotor. The pellet was then resuspended in TME buffer to provide a final protein concentration of 1 mg/ml, as determined by Biorad assay. […] Incubations were for 60 min at 25° C. and were terminated by the addition of 4 ml of ice-cold 50 mM TRIS-HCl followed by rapid filtration through Whatman GF/B filters and three additional 4 ml washes in a cell harvester (Brandel).

[2] = target: T2, human FP receptor (Homo sapiens, UniProt P43088); experiment: Total inositol phosphate accumulation, HEK-293 cells with recombinant human FP receptor; assay type: cell-based; design: expressed in transfected cells; details: for % maximal total inositol phosphate accumulation mean χ ± SEM: reference 17-phenyl PGF2α 10^−6 M
T2 sequence (P43088 whole entry): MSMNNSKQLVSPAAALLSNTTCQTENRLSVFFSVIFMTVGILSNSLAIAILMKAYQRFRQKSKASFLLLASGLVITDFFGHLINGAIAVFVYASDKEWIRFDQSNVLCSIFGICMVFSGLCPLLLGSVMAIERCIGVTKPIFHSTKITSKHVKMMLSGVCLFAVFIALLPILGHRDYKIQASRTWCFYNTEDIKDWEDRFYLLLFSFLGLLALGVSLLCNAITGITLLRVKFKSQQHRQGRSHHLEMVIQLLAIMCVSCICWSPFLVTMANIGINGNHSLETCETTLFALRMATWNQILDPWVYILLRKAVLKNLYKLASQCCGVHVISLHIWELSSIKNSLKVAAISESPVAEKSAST
Procedure: HEK-293 cells were grown in DMEM with 10% fetal bovine serum (FBS), 250 μg ml^−1 G418 (Life Technologies) and 200 μg ml^−1 gentamicin or penicillin/streptomycin. […] For transfection, the cells were grown to 50-60% confluency on 10 cm plates. The plasmid pCEP4 incorporating cDNA inserts for the human FP receptor (20 μg) was added to 500 μl of 250 mM CaCl2. HEPES buffered saline×2 (2×HBSS, 280 mM NaCl, 20 mM HEPES acid, 1.5 mM Na2 HPO4, pH 7.05-7.12) was then added dropwise to a […], with continuous vortexing at room temperature. After 30 min, 9 ml DMEM were added to the mixture. The DNA/DMEM/calcium phosphate mixture was then added to the cells, which had been previously rinsed with 10 ml phosphate buffered saline (PBS). The cells were then incubated for 5 h. at 37° C. in humidified 95% air/5% CO2. The calcium phosphate solution was then removed and the cells were treated with 10% glycerol in DMEM for 2 min. The glycerol solution was then replaced by DMEM with 10% fetal bovine serum (FBS). The cells were incubated overnight and the medium was replaced by DMEM/10% FBS containing 250 μg ml^−1 G418 and penicillin/streptomycin. The following day hygromycin B was added to a final concentration of 200 μg ml^−1.
Receptor-mediated phosphoinositide (PI) hydrolysis was determined by measuring the accumulation of total inositol phosphates (IP) in cells preincubated with ^3H-myoinositol. Stable cell lines of HEK 293 cells expressing human or cat FP receptors were plated in 10 cm dishes (10^6 cells per dish in DMEM with 10% FBS). The following day, the cells were incubated with 18 μCi myo-[2 ^3H] inositol (Amersham; […]) in 6 ml of DMEM with 10% FBS for 24 hours at 37° C. The cells were then rinsed twice with phosphate buffered saline (PBS), incubated for 5 min with 1 ml of trypsin-EDTA, and suspended in 10 ml DMEM containing 25 mM HEPES buffer. Cells were pelleted at 1000 rpm and resuspended in DMEM/25 mM HEPES containing 10 mM LiCl for 10 minutes. Aliquots of 200 μl cell suspension were incubated with 50 μl drug for 30 minutes at 37° C. (duplicate determination), and agonist stimulation was terminated with a 750 μl mixture of chloroform:methanol:4N HCl (100:200:2), followed by addition of 250 μl of chloroform and 0.5 N HCl for extraction of inositol phosphates. A 750 μl volume of the aqueous layer was loaded on columns packed with 0.5 ml of Dowex AG 1-X8 anion-exchange resin (formate form, 100-200 mesh; BioRad) to separate radiolabeled components. The elution procedure consisted of three 3 ml washes with 5 mM inositol, then two elutions with 750 μl of 1.3 M ammonium formate with 0.1 M formic acid. The eluate was mixed with 10 ml Aquasol scintillation fluid (Packard Instrument Co.) and total [^3H] inositol phosphates was determined by a liquid scintillation counter.

[3] = target: T1, recombinant feline FP receptor; experiment: Total inositol phosphate accumulation, HEK-293 cells with recombinant feline FP receptor; assay type: cell-based, cat; details: read-out: E.C.50, total inositol phosphate accumulation
Procedure: Ten days after transfection, hygromycin B resistant clones were individually selected and transferred to a separate well on a 24 well plate. At confluence each clone was transferred to one well of a 6 well plate, and then expanded in a 10 cm dish. Cells were maintained under continuous hygromycin selection until use. The stable cat FP receptor transfectants were similarly prepared using […]. Again cells were grown to 50-60% confluency on 10 cm plates and the plasmid pCEP4, incorporating cDNA inserts for the feline FP receptor, was transfected using lipofectin. Hygromycin B selection was started 48 hr post-transfection. Eight days after transfection, hygromycin B resistant clones were selected and transferred to 24 well plates. Ca^2+ signaling studies on recombinant cat and human FP receptors were performed in an identical manner to that described for the CRL 1497 cell studies.
Receptor-mediated phosphoinositide (PI) hydrolysis was determined by measuring the accumulation of total inositol phosphates (IP) in cells preincubated with ^3H-myoinositol. Stable cell lines of HEK 293 cells expressing human or cat FP receptors were plated in 10 cm dishes (10^6 cells per dish in DMEM with 10% FBS). […] The eluate was mixed with 10 ml Aquasol scintillation fluid (Packard Instrument Co.) and total [^3H] inositol phosphates was determined by a liquid scintillation counter.

[4] = target: T2, human FP receptor; experiment: Radioligand binding competition vs 3H-17-phenyl PGF2α, recombinant human FP receptor; design: expressed in transfected cells; details: for % specific binding mean χ ± SEM: vs 5nM 3H-17-phenyl PGF2α, n = 3
Procedure: Plasma membrane preparations of HEK 293 cells stably transfected with the human or feline FP receptor were obtained as follows. Cells washed with TME buffer were scraped from the bottom of the flasks and homogenized for 30 sec using a Brinkman PT 10/35 polytron. TME buffer was added as necessary to achieve a 40 ml volume in the centrifuge tubes. TME is comprised of 100 mM TRIS base, 20 mM Mg Cl2, 2 m EDTA; physiological pH is achieved by adding 10 N HCl. The cell homogenate was centrifuged at 19,000 rpm for 20 min at 4-6° C. using a Beckman Ti-60 rotor. The pellet was then resuspended in TME buffer to provide a final protein concentration of 1 mg/ml, as determined by Biorad assay. Radioligand binding assays were performed in a 200 μl volume.
Incubations were for 60 min at 25° C. and were terminated by the addition of 4 ml of ice-cold 50 mM TRIS-HCl followed by rapid filtration through Whatman GF/B filters and three additional 4 ml washes in a cell harvester (Brandel).

T1 sequence (A0ABI7XJ69 entry or part of it): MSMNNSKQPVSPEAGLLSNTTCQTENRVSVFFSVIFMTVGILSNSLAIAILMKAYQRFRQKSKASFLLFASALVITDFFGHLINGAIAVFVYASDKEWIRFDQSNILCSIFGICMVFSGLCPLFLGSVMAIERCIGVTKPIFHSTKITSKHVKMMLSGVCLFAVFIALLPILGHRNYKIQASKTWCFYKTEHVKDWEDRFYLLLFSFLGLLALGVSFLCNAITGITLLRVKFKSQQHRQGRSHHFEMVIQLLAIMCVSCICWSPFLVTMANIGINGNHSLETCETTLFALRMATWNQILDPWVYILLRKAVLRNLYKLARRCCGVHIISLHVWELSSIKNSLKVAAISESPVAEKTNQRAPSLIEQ

affinity for the feline receptor ([1]; radioligand binding): high affinity
IC50 ([1]; vs 5 nM 3H-17-phenyl PGF2α, feline FP receptor, read-out: inhibitory concentration50 (I.C.50), radioligand binding): 43.5 nM
% maximal total inositol phosphate accumulation mean χ ± SEM ([2]; 10^−6 M): 100 ± 1.3%
% maximal total inositol phosphate accumulation mean χ ± SEM ([2]; 10^−7 M): 92.3 ± 0.9%
% maximal total inositol phosphate accumulation mean χ ± SEM ([2]; 10^−8 M): 57.8 ± 2.0%
% maximal total inositol phosphate accumulation mean χ ± SEM ([2]; 10^−9 M): 14.7 ± 3.3%
EC50 ([2]; HEK-293 cells, recombinant human FP receptor, read-out: E.C.50, total inositol phosphate accumulation): 8 nM
EC50 [3]: 9 nM
% specific binding mean χ ± SEM ([4]; 10^−5 M): 0 ± 0%
% specific binding mean χ ± SEM ([4]; 10^−6 M): 1.7 ± 1.7%
% specific binding mean χ ± SEM ([4]; 10^−7 M): 5.3 ± 1.5%
% specific binding mean χ ± SEM ([4]; 10^−8 M): 24.0 ± 1.2%
% specific binding mean χ ± SEM ([4]; 10^−9 M): 65.0 ± 1.0%
% specific binding mean χ ± SEM ([4]; 10^−10 M): 98 ± 1.1%
IC50 ([4]; vs 5 nM 3H-17-phenyl PGF2α, human FP receptor, read-out: I.C.50, radioligand binding): 2.3 nM
Compound: O=C(O)CCC/C=C\C[C@@H]1[C@@H](/C=C/[C@@H](O)CCc2ccccc2)[C@H](O)C[C@@H]1O [17-phenyl PGF2α, 17-phenyl prostaglandin F2α, reference compound]
